Measurements published in publication PMC5681660, “Reduced hepatitis B and D viral entry using clinically applied drugs as novel inhibitors of the bile acid transporter NTCP” (Scientific Reports, 2017).
Where a name gives a salt, the structure may show the parent alone. Read-outs that look alike come from different tables or passages of the source.

Key:
human NTCP [1] = biological target: T1, human NTCP (Homo sapiens, UniProt Q14973); assay: Screening fluorescent competitive Myrcludex B-FITC binding assay (96-well, 10 µM drug)
T1 sequence (Q14973 1-349): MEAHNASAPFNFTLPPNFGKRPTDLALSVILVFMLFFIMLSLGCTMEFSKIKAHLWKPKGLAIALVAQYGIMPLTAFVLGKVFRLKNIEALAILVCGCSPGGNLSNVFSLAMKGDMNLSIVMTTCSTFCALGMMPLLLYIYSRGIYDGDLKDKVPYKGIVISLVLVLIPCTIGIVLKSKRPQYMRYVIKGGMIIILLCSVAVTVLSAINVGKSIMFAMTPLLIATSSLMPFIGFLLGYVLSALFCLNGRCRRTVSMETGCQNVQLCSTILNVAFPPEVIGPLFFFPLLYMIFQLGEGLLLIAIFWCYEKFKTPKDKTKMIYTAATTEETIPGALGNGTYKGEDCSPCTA

human NTCP [2] = biological target: T1, human NTCP; assay: Screening taurocholate uptake assay (96-well, [14C]taurocholate, 10 µM drug)
[3] = screen, 10 µM drug, Myrcludex B-FITC binding
[4] = combined ranking from functional and binding screening assays
[5] = screen, 10 µM drug, taurocholate uptake
[6] = Prestwick library screen, 10 µM drug, B-score of Myrcludex B-FITC binding
[7] = Prestwick library screen, 10 µM drug, B-score of taurocholate uptake
[8] = combined ranking from functional and binding assay B-scores
[9] = Prestwick library screen, Myrcludex B-FITC binding, 10 µM drug
[10] = Prestwick library screen, taurocholate uptake, 10 µM drug
[11] = ranking score beside the functional and binding assay B-scores of the screen

Compound | B-score binding assay (human NTCP [1]; [3]) | Ranking score (human NTCP [2]; [4]) | B-score functional assay (human NTCP [2]; [5]) | B-score binding assay (human NTCP [1]; [6]) | B-score functional assay (human NTCP [2]; [7]) | Ranking score (human NTCP [2]; [8]) | also measured
COC(=O)C1=C(C#N)NC(C)=C(C(=O)OC(C)C)C1c1cccc([N+](=O)[O-])c1 (stereo not drawn) [Nilvadipine] | 2.397 | 384.686 | -2.135 |  |  |  | 
CS(=O)(=O)Nc1ccc([N+](=O)[O-])cc1Oc1ccccc1 [Nimesulide] | 0.652 | 428.869 | -1.398 |  |  |  | 
O=C1NCCN1c1ncc([N+](=O)[O-])s1 [Niridazole] | -0.358 | 301.174 | -1.225 |  |  |  | 
CNCCC(Oc1ccccc1OC)c1ccccc1 (stereo not drawn) [Nisoxetine hydrochloride] |  |  |  |  |  |  | B-score binding assay (human NTCP [1]): -0.726; B-score functional assay (human NTCP [2]): -0.598; Ranking score (human NTCP [2]): 324.321
CCN(CC)CCOC(=O)C1(c2ccc([N+](=O)[O-])cc2)CCCC1.Cl [Nitrocaramiphen hydrochloride] |  |  |  | 0.18 | 0.881 | 904.838 | 
CNC(=C[N+](=O)[O-])NCCSCc1csc(CN(C)C)n1 [Nizatidine] |  |  |  | 1.375 | 0.271 | 960.129 | 
COC(=O)Nc1nc2ccc(C(=O)c3cccs3)cc2[nH]1 [Nocodazole] | 0.497 | 428.035 | -1.345 |  |  |  | 
CC(=O)O[C@]1(C(C)=O)CC[C@H]2[C@@H]3C=C(C)C4=CC(=O)CC[C@@H]4[C@H]3CC[C@@]21C [Nomegestrol acetate] | 1.174 | 298.149 | -2.71 |  |  |  | 
CN1Cc2c(N)cccc2C(c2ccccc2)C1 (stereo not drawn) [Nomifensine maleate] | -1.176 | 394.208 | 0.089 |  |  |  | 
CNCCC=C1c2ccccc2C=Cc2ccccc21 [Norcyclobenzaprine] |  |  |  |  |  |  | B-score binding assay (human NTCP [1]; [9]): -0.001; B-score functional assay (human NTCP [2]; [10]): 0.855; Ranking score (human NTCP [2]; [11]): 807.009
C#C[C@]1(O)CC[C@H]2[C@@H]3CCC4=C(CCC(=O)C4)[C@H]3CC[C@@]21C [Norethynodrel] |  |  |  |  |  |  | B-score binding assay (human NTCP [1]; [9]): 0.121; B-score functional assay (human NTCP [2]; [10]): 0.092; Ranking score (human NTCP [2]; [11]): 749.492
CCn1cc(C(=O)O)c(=O)c2cc(F)c(N3CCNCC3)cc21 [Norfloxacin] |  |  |  |  |  |  | B-score binding assay (human NTCP [1]; [9]): 2.084; B-score functional assay (human NTCP [2]; [10]): -0.135; Ranking score (human NTCP [2]; [11]): 788.093
CNCCC=C1c2ccccc2CCc2ccccc21 [Nortriptyline hydrochloride] |  |  |  | 1.407 | 1.081 | 1101.36 | 
CO[C@@H]1[C@@H](OC(N)=O)[C@@H](O)[C@H](Oc2ccc3c([O-])c(NC(=O)c4ccc(O)c(CC=C(C)C)c4)c(=O)oc3c2C)OC1(C)C.[Na+] [Novobiocin sodium salt] |  |  |  | 0.269 | 1.027 | 942.881 | 
CC(CCc1ccccc1)NC(C)C(O)c1ccc(O)cc1 (stereo not drawn) [Nylidrin] | -0.92 | 363.793 | -0.121 |  |  |  | 
C[C@@H]1[C@H](O)[C@@H](C)/C=C/C=C/CC/C=C/C=C/C=C/C=C/C(O[C@H]2O[C@H](C)[C@@H](O)[C@H](N)[C@@H]2O)CC2O[C@](O)(CC(O)C(O)CCC(O)CC(O)CC(O)CC(=O)O[C@H]1C)CC(O)C2C(=O)O (stereo partly drawn) [Nystatine] |  |  |  |  |  |  | B-score binding assay (human NTCP [1]; [9]): 3.8; B-score functional assay (human NTCP [2]; [10]): -0.141; Ranking score (human NTCP [2]; [11]): 804.798
CC1COc2c(N3CCN(C)CC3)c(F)cc3c(=O)c(C(=O)O)cn1c23 (stereo not drawn) [Ofloxacin] |  |  |  |  |  |  | B-score binding assay (human NTCP [1]): 0.588; B-score functional assay (human NTCP [2]): 1.32; Ranking score (human NTCP [2]): 1023.33
Cc1cc2c(s1)Nc1ccccc1N=C2N1CCN(C)CC1 [Olanzapine] |  |  |  | 2.253 | 0.458 | 1041.63 | 
CN(C)CC/C=C1/c2ccccc2COc2ccc(CC(=O)O)cc21 [Olopatadine hydrochloride] |  |  |  | 0.808 | 1.227 | 1048.28 | 
COc1ccc2[nH]c([S+]([O-])Cc3ncc(C)c(OC)c3C)nc2c1 (stereo not drawn) [Omeprazole] | -0.678 | 423.789 | -0.074 |  |  |  | 
Cc1nccn1CC1CCc2c(c3ccccc3n2C)C1=O.Cl (stereo not drawn) [Ondansetron Hydrochloride] |  |  |  |  |  |  | B-score binding assay (human NTCP [1]; [9]): 0; B-score functional assay (human NTCP [2]; [10]): 0.043; Ranking score (human NTCP [2]; [11]): 666.933
Cc1onc(-c2ccccc2)c1C(=O)N[C@@H]1C(=O)N2[C@@H]1SC(C)(C)[C@@H]2C(=O)[O-].[Na+] [Oxacillin sodium] |  |  |  | 0.083 | 0.869 | 869.572 | 
